Experimental data: patent publication US7074789B2, “Kinase inhibitors” (Amgen Inc., priority 1999, dated 2006)
Like-named read-outs stand apart in the source and are kept apart here.

Legend:
Assay type in all cases: biochemical
Kdr = molecular target: T1, Kdr (Homo sapiens, UniProt P35968); experiment: Kinase inhibition assay (33P transfer), Kdr; conditions: read-out: KDR-1
T1 construct: Kinases are expressed as either kinase domains or full length constructs; made in house
In short: (§1)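 Radiometric readout: 33P incorporated into surface-bound poly(Glu,Tyr) 4:1 or poly(Arg,Ser) 3:1 is counted by liquid scintillation after a 0.5% phosphoric acid wash. Enzymes were GST or polyHis fusions (kinase domain or full length) from E. coli or High Five insect cells.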

IGFR-1 [1] = molecular target: T2, IGFR-1 (Homo sapiens, UniProt P08069); experiment: Kinase inhibition assay (33P transfer), IGFR-1; conditions: Table 2, class symbols A-E
T2 construct: Kinases are expressed as either kinase domains or full length constructs; made in house

EGFR = molecular target: T3, EGFR (Homo sapiens, UniProt P00533); experiment: Kinase inhibition assay (33P transfer), EGFR; conditions: read-out: EGFR-1
T3 construct: Kinases are expressed as either kinase domains or full length constructs; made in house
In short: (§2)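 Recombinant kinase domains or full-length GST- or His-tagged constructs, from E. coli or baculovirus/High Five cells, sometimes with regulatory polypeptides. Transfer of 33P from ATP to plate-bound poly(Glu,Tyr) 4:1 or poly(Arg,Ser) 3:1 counted by liquid scintillation after phosphoric acid wash; IC50 is the concentration halving incorporation.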

Zap-70 = molecular target: T4, Zap-70 (Homo sapiens, UniProt P43403); experiment: Kinase inhibition assay (33P transfer), Zap-70; conditions: read-out: Zap-1
T4 construct: Kinases are expressed as either kinase domains or full length constructs; made in house
T4 sequence (P43403 1-619): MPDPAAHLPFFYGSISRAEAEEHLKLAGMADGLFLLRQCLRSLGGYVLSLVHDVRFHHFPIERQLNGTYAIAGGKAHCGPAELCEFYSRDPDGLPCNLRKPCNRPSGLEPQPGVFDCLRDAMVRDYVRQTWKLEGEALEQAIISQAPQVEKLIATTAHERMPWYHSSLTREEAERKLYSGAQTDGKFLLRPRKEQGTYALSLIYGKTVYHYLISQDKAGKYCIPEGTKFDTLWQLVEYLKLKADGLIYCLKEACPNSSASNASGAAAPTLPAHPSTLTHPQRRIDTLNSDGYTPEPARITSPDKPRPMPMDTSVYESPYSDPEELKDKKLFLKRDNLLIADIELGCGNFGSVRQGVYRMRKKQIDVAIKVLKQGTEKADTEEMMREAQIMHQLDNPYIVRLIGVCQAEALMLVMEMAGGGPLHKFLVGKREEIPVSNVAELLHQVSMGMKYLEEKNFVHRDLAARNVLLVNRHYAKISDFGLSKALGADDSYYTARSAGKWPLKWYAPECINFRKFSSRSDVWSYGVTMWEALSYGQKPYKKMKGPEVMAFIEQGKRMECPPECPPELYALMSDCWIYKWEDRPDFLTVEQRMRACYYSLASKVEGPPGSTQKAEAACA
In short: as §1

Lck = molecular target: T5, Lck (Homo sapiens, UniProt P06239); experiment: Kinase inhibition assay (33P transfer), Lck; conditions: read-out: Lck-1
T5 construct: Kinases are expressed as either kinase domains or full length constructs; made in house
In short: as §1

AKT = molecular target: T6, AKT (Homo sapiens, UniProt Q9Y243); experiment: Kinase inhibition assay (33P transfer), AKT; conditions: read-out: AKT3-1
T6 construct: Kinases are expressed as either kinase domains or full length constructs; made in house
In short: as §1

c-Met = molecular target: T7, c-Met (Homo sapiens, UniProt P08581); experiment: Kinase inhibition assay (33P transfer), c-Met; conditions: read-out: Met-1
T7 construct: Kinases are expressed as either kinase domains or full length constructs; made in house
In short: as §2

Itk = molecular target: T8, Itk (Homo sapiens, UniProt Q08881); experiment: Kinase inhibition assay (33P transfer), Itk; conditions: read-out: Itk-1
T8 construct: Kinases are expressed as either kinase domains or full length constructs; made in house
T8 sequence (Q08881 1-620): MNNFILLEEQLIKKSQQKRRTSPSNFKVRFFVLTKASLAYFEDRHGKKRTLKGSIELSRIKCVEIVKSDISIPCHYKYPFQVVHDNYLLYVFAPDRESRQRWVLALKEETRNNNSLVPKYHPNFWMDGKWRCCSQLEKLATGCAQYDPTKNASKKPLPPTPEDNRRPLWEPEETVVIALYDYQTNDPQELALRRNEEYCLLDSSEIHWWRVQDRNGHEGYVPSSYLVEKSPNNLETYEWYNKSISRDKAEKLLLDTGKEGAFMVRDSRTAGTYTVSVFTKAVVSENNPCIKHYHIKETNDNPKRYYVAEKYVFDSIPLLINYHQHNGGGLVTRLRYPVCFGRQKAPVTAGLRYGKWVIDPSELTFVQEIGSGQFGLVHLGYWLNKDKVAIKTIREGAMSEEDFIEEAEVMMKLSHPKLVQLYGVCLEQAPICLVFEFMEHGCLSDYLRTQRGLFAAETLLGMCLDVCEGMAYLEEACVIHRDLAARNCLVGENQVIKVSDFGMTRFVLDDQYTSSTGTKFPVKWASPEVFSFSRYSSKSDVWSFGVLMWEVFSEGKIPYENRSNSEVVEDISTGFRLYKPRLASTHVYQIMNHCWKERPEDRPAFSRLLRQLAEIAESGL
In short: as §2

Tek = molecular target: T9, Tek (Homo sapiens, UniProt Q02763); experiment: Kinase inhibition assay (33P transfer), Tek; conditions: read-out: Tek-1
T9 construct: Kinases are expressed as either kinase domains or full length constructs; made in house
In short: as §2

EPHB4 = molecular target: T10, EPHB4 (Homo sapiens, UniProt P54760); experiment: Kinase inhibition assay (33P transfer), EPHB4; conditions: read-out: EPHB4-1
T10 construct: Kinases are expressed as either kinase domains or full length constructs; made in house
T10 sequence (P54760 16-987): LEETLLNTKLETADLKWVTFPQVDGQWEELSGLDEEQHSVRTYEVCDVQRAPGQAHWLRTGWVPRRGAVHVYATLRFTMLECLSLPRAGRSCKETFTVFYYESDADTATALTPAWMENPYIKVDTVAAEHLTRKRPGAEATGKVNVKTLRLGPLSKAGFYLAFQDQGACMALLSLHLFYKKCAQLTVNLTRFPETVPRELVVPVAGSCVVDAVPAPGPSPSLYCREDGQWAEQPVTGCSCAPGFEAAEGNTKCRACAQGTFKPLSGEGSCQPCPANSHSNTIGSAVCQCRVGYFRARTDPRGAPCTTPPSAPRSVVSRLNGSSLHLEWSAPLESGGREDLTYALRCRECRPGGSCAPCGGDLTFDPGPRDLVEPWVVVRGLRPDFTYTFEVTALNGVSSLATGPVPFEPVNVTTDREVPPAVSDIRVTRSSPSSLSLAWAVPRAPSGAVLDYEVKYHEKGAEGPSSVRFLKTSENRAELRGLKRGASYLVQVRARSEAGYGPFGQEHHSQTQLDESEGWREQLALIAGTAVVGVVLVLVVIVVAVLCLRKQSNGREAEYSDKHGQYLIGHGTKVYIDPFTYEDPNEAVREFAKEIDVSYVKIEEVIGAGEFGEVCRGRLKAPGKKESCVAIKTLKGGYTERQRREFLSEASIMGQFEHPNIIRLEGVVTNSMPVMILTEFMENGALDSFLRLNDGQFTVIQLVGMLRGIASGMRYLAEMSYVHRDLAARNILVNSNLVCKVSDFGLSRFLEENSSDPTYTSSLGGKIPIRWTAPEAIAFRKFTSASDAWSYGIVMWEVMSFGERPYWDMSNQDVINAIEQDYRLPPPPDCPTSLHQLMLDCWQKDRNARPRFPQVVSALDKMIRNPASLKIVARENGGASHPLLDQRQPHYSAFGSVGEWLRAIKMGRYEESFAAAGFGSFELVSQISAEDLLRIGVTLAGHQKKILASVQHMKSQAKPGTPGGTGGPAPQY

IGFR-1 [2] = molecular target: T2, IGFR-1; experiment: Kinase inhibition assay (33P transfer), IGFR-1; conditions: Table 2, kinase inhibition class
ErbB4 = molecular target: T11, ErbB4 (Homo sapiens, UniProt Q15303); experiment: Kinase inhibition assay (33P transfer), ErbB4; conditions: read-out: ErbB4-1
T11 construct: Kinases are expressed as either kinase domains or full length constructs; made in house

[3] = Table 2, kinase inhibition class

T6 sequence (Q9Y243 whole entry, the tested form may be a part): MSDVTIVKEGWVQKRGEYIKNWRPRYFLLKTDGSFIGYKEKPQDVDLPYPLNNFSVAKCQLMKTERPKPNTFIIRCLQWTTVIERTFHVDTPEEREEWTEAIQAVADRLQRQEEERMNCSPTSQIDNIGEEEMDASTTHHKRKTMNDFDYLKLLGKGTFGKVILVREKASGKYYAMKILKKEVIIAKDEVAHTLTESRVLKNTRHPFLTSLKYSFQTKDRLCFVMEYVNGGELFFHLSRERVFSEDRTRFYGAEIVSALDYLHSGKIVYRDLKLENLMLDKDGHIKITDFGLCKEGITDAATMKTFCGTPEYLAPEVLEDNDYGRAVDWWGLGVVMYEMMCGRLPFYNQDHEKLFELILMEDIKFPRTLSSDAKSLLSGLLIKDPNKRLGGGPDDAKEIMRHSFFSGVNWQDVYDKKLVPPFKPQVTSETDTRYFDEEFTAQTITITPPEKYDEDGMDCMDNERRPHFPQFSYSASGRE
T5 sequence (P06239 whole entry, species assumed, the tested form may be a part): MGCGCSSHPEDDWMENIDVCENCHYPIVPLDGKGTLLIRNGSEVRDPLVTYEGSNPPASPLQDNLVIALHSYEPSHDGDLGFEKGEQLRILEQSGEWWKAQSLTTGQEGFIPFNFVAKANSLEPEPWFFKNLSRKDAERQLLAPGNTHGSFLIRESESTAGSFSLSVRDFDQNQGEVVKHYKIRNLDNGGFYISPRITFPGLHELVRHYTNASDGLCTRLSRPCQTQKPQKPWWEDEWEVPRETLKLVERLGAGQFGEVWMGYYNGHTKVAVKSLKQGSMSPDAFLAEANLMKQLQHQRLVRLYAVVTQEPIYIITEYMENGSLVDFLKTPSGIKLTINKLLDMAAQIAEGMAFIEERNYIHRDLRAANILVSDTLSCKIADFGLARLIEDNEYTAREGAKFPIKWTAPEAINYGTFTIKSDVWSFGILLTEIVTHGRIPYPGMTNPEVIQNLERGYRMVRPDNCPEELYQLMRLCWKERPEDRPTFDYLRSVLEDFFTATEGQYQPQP
T7 sequence (P08581 25-1390): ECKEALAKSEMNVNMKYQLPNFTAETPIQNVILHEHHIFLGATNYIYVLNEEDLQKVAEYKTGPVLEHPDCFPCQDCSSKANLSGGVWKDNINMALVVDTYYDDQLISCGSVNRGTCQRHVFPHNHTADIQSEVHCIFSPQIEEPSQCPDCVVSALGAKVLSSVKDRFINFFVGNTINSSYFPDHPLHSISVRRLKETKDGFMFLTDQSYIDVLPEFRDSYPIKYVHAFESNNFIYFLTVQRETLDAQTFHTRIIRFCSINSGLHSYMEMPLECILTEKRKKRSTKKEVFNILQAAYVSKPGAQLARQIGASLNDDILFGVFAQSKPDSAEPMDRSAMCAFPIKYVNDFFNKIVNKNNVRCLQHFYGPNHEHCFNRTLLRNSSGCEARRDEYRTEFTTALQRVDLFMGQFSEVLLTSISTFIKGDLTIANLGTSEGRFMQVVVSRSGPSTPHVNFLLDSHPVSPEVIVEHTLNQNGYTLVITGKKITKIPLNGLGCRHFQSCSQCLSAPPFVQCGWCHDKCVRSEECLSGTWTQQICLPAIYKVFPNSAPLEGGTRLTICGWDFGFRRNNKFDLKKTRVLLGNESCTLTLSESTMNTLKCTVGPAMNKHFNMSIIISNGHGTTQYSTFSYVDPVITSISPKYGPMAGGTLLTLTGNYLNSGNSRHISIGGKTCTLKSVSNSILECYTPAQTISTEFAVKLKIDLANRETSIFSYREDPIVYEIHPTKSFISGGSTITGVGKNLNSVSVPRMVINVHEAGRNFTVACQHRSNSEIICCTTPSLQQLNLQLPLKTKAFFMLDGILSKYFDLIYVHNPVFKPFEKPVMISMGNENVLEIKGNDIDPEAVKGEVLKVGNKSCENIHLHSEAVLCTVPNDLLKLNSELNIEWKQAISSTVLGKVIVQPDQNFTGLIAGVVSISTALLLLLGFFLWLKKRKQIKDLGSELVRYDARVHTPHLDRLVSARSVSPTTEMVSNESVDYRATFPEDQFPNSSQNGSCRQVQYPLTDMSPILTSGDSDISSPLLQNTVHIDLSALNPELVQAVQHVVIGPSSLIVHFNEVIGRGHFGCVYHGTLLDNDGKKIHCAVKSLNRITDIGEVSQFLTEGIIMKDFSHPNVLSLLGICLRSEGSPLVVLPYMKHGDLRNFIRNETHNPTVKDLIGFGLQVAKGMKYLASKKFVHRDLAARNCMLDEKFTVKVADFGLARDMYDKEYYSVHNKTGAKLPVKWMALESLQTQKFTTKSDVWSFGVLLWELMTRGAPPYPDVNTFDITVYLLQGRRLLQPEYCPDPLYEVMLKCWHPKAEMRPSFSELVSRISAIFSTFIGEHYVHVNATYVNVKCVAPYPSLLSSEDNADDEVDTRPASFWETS
T2 sequence (P08069 31-1367): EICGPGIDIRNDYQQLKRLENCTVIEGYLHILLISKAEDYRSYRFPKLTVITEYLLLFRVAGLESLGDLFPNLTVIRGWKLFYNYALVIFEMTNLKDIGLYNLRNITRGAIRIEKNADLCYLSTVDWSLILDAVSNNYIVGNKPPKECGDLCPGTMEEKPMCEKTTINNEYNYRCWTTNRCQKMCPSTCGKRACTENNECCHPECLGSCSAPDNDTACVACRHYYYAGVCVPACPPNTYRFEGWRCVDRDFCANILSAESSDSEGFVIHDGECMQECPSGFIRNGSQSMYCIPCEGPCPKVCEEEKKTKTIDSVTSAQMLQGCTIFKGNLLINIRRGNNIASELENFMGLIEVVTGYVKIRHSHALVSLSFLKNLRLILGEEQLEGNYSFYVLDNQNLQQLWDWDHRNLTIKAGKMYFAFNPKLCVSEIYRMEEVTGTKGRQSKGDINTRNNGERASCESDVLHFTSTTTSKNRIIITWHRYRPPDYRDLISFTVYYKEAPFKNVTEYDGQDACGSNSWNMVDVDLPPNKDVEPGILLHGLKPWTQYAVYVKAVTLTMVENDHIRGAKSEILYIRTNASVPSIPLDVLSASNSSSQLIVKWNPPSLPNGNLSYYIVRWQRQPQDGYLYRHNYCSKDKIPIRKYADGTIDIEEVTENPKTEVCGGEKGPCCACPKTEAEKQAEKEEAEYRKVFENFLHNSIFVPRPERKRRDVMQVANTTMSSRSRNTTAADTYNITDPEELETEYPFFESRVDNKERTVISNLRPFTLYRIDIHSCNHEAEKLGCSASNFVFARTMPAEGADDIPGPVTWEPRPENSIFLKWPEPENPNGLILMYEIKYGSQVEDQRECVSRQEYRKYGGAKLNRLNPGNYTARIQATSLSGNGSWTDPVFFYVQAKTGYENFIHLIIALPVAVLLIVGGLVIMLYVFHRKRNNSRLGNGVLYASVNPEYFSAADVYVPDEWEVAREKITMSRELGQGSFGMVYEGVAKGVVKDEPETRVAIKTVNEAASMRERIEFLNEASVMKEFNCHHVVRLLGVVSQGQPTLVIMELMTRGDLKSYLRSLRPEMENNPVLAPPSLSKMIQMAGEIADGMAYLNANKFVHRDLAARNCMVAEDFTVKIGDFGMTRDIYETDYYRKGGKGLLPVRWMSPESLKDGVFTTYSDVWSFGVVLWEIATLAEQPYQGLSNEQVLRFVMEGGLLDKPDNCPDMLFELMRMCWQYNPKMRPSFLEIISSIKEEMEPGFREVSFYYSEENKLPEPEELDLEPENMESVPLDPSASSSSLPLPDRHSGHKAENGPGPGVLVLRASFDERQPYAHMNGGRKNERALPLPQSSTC
T11 sequence (Q15303 26-1308, species assumed): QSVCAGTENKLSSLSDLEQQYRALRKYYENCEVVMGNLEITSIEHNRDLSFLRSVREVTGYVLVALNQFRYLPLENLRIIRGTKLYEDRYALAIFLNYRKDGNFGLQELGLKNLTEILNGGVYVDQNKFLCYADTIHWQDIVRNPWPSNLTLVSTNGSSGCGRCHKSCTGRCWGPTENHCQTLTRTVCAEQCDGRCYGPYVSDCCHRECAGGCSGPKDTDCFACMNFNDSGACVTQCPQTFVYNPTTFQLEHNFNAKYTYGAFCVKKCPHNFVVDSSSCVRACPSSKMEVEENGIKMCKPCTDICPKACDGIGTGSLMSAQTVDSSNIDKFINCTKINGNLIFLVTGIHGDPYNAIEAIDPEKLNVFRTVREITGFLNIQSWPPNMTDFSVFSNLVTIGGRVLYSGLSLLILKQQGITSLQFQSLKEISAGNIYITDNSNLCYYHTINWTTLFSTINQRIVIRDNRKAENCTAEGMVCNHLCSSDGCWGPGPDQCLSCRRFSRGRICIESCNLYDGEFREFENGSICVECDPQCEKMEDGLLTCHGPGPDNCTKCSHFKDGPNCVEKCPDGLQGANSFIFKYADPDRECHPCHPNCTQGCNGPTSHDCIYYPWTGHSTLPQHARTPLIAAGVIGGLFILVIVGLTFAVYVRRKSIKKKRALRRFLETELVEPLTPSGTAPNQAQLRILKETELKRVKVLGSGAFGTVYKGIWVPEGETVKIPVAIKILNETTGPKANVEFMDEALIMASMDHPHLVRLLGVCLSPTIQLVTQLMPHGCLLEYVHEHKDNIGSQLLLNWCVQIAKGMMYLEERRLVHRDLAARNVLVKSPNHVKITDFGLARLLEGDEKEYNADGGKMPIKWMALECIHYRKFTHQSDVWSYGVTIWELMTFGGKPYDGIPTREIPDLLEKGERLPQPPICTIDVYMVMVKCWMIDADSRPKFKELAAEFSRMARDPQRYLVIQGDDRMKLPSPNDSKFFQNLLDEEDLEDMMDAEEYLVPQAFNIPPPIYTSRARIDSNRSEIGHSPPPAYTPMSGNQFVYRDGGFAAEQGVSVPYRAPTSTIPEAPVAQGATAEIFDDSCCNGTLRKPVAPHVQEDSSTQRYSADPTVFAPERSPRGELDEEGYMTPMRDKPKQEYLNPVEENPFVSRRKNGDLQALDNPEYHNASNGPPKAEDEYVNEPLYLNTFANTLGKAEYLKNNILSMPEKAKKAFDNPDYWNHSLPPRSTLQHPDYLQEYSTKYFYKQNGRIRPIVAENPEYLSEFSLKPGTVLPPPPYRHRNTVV

IC50 (Kdr; Table 3, class symbols) [µM]	IC50 (IGFR-1 [1]) [µM]	IC50 (EGFR; Table 2, class symbols A-E) [nM]	IC50 (Zap-70; Table 3, class symbols) [µM]	IC50 (Lck; Table 3, class symbols) [µM]	IC50 (AKT; Table 2, class symbols A-E) [µM]	IC50 (c-Met; Table 2, class symbols A-E) [µM]	IC50 (Itk; Table 3, class symbols) [µM]	IC50 (Kdr; Table 3) [µM]	IC50 (EGFR; [3]) [nM]	IC50 (Tek) [µM]	IC50 (Zap-70; Table 3) [µM]	IC50 (Lck; Table 3) [µM]	IC50 (AKT; [3]) [µM]	IC50 (EPHB4) [µM]	IC50 (c-Met; [3]) [µM]	IC50 (IGFR-1 [2]) [µM]	IC50 (ErbB4) [µM]	IC50 (Itk; Table 3) [µM]	Compound
> 12	> 12	> 12000	> 12	> 12	> 12	> 12	> 12	–	–	–	–	–	–	–	–	–	–	–	Cc1ccc2c(c1)CCCN2c1ncnc(NCc2ccc(C(=O)O)cc2)n1 [Compound 853]
< 1.08	> 12.1	1080 to 6480	> 12.1	1.08 to 6.48	> 12.1	1.08 to 6.48	> 12.1	–	–	–	–	–	–	–	–	–	–	–	OCc1cccc(Nc2ncnc(-c3cccnc3Nc3ccccc3)n2)c1 [Compound 1115]
> 10.7	> 10.7	> 10700	> 10.7	> 10.7	> 10.7	> 10.7	> 10.7	–	–	–	–	–	–	–	–	–	–	–	COc1ccc2[nH]cc(CCNc3ncnc(Nc4ccc(OC)c(OC)c4)n3)c2c1 [Compound 855]
> 11.8	> 11.8	1050 to 6290	> 11.8	> 11.8	> 11.8	> 11.8	> 11.8	–	–	–	–	–	–	–	–	–	–	–	Cc1ccc2c(c1)CCCN2c1ncnc(Nc2c(C)ccc3ccccc23)n1 [Compound 854]

The next lines start with the molecule.

Compound	IC50 (Kdr; Table 3, class symbols) [µM]	IC50 (IGFR-1 [1]) [µM]	IC50 (EGFR; Table 2, class symbols A-E) [nM]	IC50 (Zap-70; Table 3, class symbols) [µM]	IC50 (Lck; Table 3, class symbols) [µM]	IC50 (AKT; Table 2, class symbols A-E) [µM]	IC50 (c-Met; Table 2, class symbols A-E) [µM]	IC50 (Itk; Table 3, class symbols) [µM]	IC50 (Kdr; Table 3) [µM]	IC50 (EGFR; [3]) [nM]	IC50 (Tek) [µM]	IC50 (Zap-70; Table 3) [µM]	IC50 (Lck; Table 3) [µM]	IC50 (AKT; [3]) [µM]	IC50 (EPHB4) [µM]	IC50 (c-Met; [3]) [µM]	IC50 (IGFR-1 [2]) [µM]	IC50 (ErbB4) [µM]	IC50 (Itk; Table 3) [µM]
COc1cc(Nc2ncnc(Nc3cccc(OC(F)(F)F)c3)n2)cc(OC)c1OC [Compound 250]	–	–	–	–	–	–	–	–	5.49 to 8	< 915	> 10.3	> 10.3	0.915 to 5.49	> 10.3	> 10.3	> 10.3	< 0.915	0.915 to 5.49	> 10.3
COc1ccc(Nc2ncnc(Nc3cccc(Br)c3)n2)cc1OC [Compound 118]	–	–	–	–	–	–	–	–	> 11.2	< 994	> 11.2	> 11.2	8.7 to 11.2	> 11.2	0.994 to 5.97	> 11.2	0.994 to 5.97	> 11.2	0.994 to 5.97
COc1cc(Nc2ncnc(N(CCC(C)C)c3ccc(Cl)cc3)n2)cc(OC)c1OC [Compound 51]	–	–	–	–	–	–	–	–	0.873 to 5.24	< 873	0.873 to 5.24	> 9.83	0.873 to 5.24	> 9.83	0.873 to 5.24	0.873 to 5.24	> 9.83	5.24 to 7.64	> 9.83
